Assay results taken from patent US9221827B2, “Antimicrobial compounds and methods of making and using the same” (Melinta Therapeutics, Inc., priority 2011, dated 2015).

Test system: Escherichia coli strain ATCC25922
Test: standard microdilution assay to determine minimum inhibitory concentrations (MICs)
Assay type: cell-based
Procedure, shortened: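 MICs come from CLSI-guided microdilution in 100 μl, run alongside reference-strain performance standards. Values appear as "+" or "−" relative to 16 micrograms/ml, with "N/A" marking missing data.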

[1] = Escherichia coli strain ATCC25922, microdilution
[2] = Escherichia coli strain ATCC25922, standard microdilution assay

SMILES	E. coli ATCC25922 MIC [1]	E. coli ATCC25922 MIC [2]
N=C(N)NCCCNCc1ccc(-n2cc3cc(-c4cc(OC(F)(F)F)cc(C(F)(F)CCCN)c4)[nH]c3nc2=O)cc1 [Compound 112]	+ (a “+” indicates that the compound has an MIC value of 16 micrograms/ml or less)	
C[C@H](N)COCc1cc(OC(F)(F)F)cc(-c2cc3cn(-c4ccc(CNCCCNC(=N)N)cc4)c(=O)nc3[nH]2)c1 [Compound 311]	+ (a “+” indicates that the compound has an MIC value of 16 micrograms/ml or less)	
CC(CN)SCc1cc(SC(F)(F)F)cc(-c2cc3cn(-c4ccc(C(C)NCCCNC(=N)N)cc4)c(=O)nc3[nH]2)c1 (stereo not shown) [Compound 337]		+ (a “+” indicates that the compound has an MIC value of 16 micrograms/ml or less)
N=C(N)NCCCNCc1ccc(-n2cc3cc(-c4cc(CCC5(CN)CCC5)cc(Cl)c4F)[nH]c3nc2=O)cc1 [Compound 253]	+ (a “+” indicates that the compound has an MIC value of 16 micrograms/ml or less)	
CC(N)CCCc1cc(Cl)c(F)c(-c2cc3cn(-c4ccc(CN(C)CCCNC(=N)N)cc4)c(=O)nc3[nH]2)c1 (stereo not shown) [Compound 379]		+ (a “+” indicates that the compound has an MIC value of 16 micrograms/ml or less)
CC[C@H](N)CCCc1cc(Cl)c(F)c(-c2cc3cn(-c4ccc(CNCCCNC(=N)N)cc4)c(=O)nc3[nH]2)c1 [Compound 341]		+ (a “+” indicates that the compound has an MIC value of 16 micrograms/ml or less)
N=C(N)NCCCNCc1ccc(-n2cc3cc(-c4cccc(CCCCN)c4F)[nH]c3nc2=O)cc1 [Compound 5]	+ (a “+” indicates that the compound has an MIC value of 16 micrograms/ml or less)	
CC(CCN)Cc1cc(SC(F)(F)F)cc(-c2cc3cn(-c4ccc([C@H](C)NCCCNC(=N)N)cc4)c(=O)nc3[nH]2)c1 (stereo partly shown) [Compound 247]	+ (a “+” indicates that the compound has an MIC value of 16 micrograms/ml or less)	
CC(N)CCCc1cc(-c2cc3cn(-c4ccc(CNCCCNC(=N)N)cc4)c(=O)nc3[nH]2)cc(C2CCCC2)c1 (stereo not shown) [Compound 483]	+ (a “+” indicates that the compound has an MIC value of 16 micrograms/ml or less)	
C[C@H](N)CCCc1cc2c(c(-c3cc4cn(-c5ccc([C@H](C)NCCCNC(=N)N)cc5)c(=O)nc4[nH]3)c1)CC=C2 [Compound 457]		+ (a “+” indicates that the compound has an MIC value of 16 micrograms/ml or less)
N=C(N)NCCCNCc1ccc(-n2cc3cc(-c4cc(CCC5(CN)CC5)ccc4F)[nH]c3nc2=O)cc1 [Compound 136]	+ (a “+” indicates that the compound has an MIC value of 16 micrograms/ml or less)	
CCNCCc1cc(CCCCN)cc(-c2cc3cn(-c4ccc(CNCCCNC(=N)N)cc4)c(=O)nc3[nH]2)c1 [Compound 26]	+ (a “+” indicates that the compound has an MIC value of 16 micrograms/ml or less)	
C[C@H](NCCCNC(=N)N)c1ccc(-n2cc3cc(-c4cc(CC[C@@H](C)N)cc(SC(F)(F)F)c4)[nH]c3nc2=O)cc1 [Compound 398]		+ (a “+” indicates that the compound has an MIC value of 16 micrograms/ml or less)
CCC(N)CCCc1cc(SC(F)(F)F)cc(-c2cc3cn(-c4ccc(CNCCCNC(=N)N)cc4)c(=O)nc3[nH]2)c1 (stereo not shown) [Compound 380]		+ (a “+” indicates that the compound has an MIC value of 16 micrograms/ml or less)
C[C@H](NCCCNC(=N)N)c1ccc(-n2cc3cc(-c4cc(C5CCC(CN)CC5)cc(Cl)c4F)[nH]c3nc2=O)cc1 (stereo partly shown) [Compound 451]		+ (a “+” indicates that the compound has an MIC value of 16 micrograms/ml or less)
Cc1cc(-c2cc3cn(-c4ccc(CNCCCN=C(N)N)cc4)c(=O)nc3[nH]2)cc(CCCCN)c1F [Compound 73]	+ (a “+” indicates that the compound has an MIC value of 16 micrograms/ml or less)	

SMILES	E. coli ATCC25922 MIC [1]	E. coli ATCC25922 MIC [2]
C[C@H](N)CCCc1cc(SC(F)(F)F)cc(-c2cc3cn(-c4ccc(CNCCCNC(=N)N)cc4)c(=O)nc3[nH]2)c1 [Compound 235]	+ (a “+” indicates that the compound has an MIC value of 16 micrograms/ml or less)	
Cc1c(CC(C)C)cc(CCC[C@H](C)N)cc1-c1cc2cn(-c3ccc(CNCCCNC(=N)N)cc3)c(=O)nc2[nH]1 [Compound 452]		+ (a “+” indicates that the compound has an MIC value of 16 micrograms/ml or less)
CC(N)CCc1cc(Cl)c(F)c(-c2cc3cn(-c4ccc(CNCCCNC(=N)N)cc4)c(=O)nc3[nH]2)c1 (stereo not shown) [Compound 278]	+ (a “+” indicates that the compound has an MIC value of 16 micrograms/ml or less)	
N=C(N)NCCCNCc1ccc(-n2cc3cc(-c4cc(C5CCC(N)CC5)cc(C(F)(F)F)c4)[nH]c3nc2=O)cc1 (mixture of isomers) [Compound 425]		+ (a “+” indicates that the compound has an MIC value of 16 micrograms/ml or less)
CC[C@H](NCCCNC(=N)N)c1ccc(-n2cc3cc(-c4cc(CCC[C@H](C)N)cc(C(F)(F)F)c4)[nH]c3nc2=O)cc1 [Compound 400]		+ (a “+” indicates that the compound has an MIC value of 16 micrograms/ml or less)
C[C@H](N)CCCc1cc(SC(F)F)cc(-c2cc3cn(-c4ccc(CNCCCNC(=N)N)cc4)c(=O)nc3[nH]2)c1 [Compound 305]	+ (a “+” indicates that the compound has an MIC value of 16 micrograms/ml or less)	
CCC(N)COC(C)c1cc(-c2cc3cn(-c4ccc(CNCCCNC(=N)N)cc4)c(=O)nc3[nH]2)cc(C(F)(F)F)c1 (stereo not shown) [Compound 479]	+ (a “+” indicates that the compound has an MIC value of 16 micrograms/ml or less)	
C[C@H](CNCc1ccc(-n2cc3cc(-c4cc(CCCCN)cc(OC(F)(F)F)c4)[nH]c3nc2=O)cc1)CNC(=N)N [Compound 34]	+ (a “+” indicates that the compound has an MIC value of 16 micrograms/ml or less)	
CC(C)Cc1cc(CCC[C@H](C)N)cc(-c2cc3cn(-c4ccc([C@H](C)NCCCNC(=N)N)cc4)c(=O)nc3[nH]2)c1F [Compound 432]		+ (a “+” indicates that the compound has an MIC value of 16 micrograms/ml or less)
CC(=O)NCCCNCc1ccc(-n2cc3cc(-c4cc(CCC[C@H](C)N)cc(Cl)c4F)[nH]c3nc2=O)cc1 [Compound 386]		− (a “−” indicates that the compound has an MIC value greater than 16 micrograms/ml)
C=CC[C@H](NCCCNC(=N)N)c1ccc(-n2cc3cc(-c4cc(CCC[C@H](C)N)cc(C(F)(F)F)c4)[nH]c3nc2=O)cc1 [Compound 474]	+ (a “+” indicates that the compound has an MIC value of 16 micrograms/ml or less)	
CC(N)CCCc1cc(Cl)c(F)c(-c2cc3cn(-c4ccc(C(C)NCCCNC(=N)N)cc4)c(=O)nc3[nH]2)c1 (stereo not shown) [Compound 269]	+ (a “+” indicates that the compound has an MIC value of 16 micrograms/ml or less)	
CC(N)CCCc1cc(-c2cc3cn(-c4ccc(CNCCCNC(=N)N)cc4)c(=O)nc3[nH]2)c(F)c(Cl)c1F (stereo not shown) [Compound 499]	+ (a “+” indicates that the compound has an MIC value of 16 micrograms/ml or less)	
C[C@H](N)COCc1cc(-c2cc3cn(-c4ccc(CNCCCNC(=N)N)cc4)c(=O)nc3[nH]2)cc(C(F)(F)F)c1 [Compound 323]	+ (a “+” indicates that the compound has an MIC value of 16 micrograms/ml or less)	
COC[C@H](N)CCCc1cc(Cl)c(F)c(-c2cc3cn(-c4ccc(CNCCCNC(=N)N)cc4)c(=O)nc3[nH]2)c1 [Compound 445]		+ (a “+” indicates that the compound has an MIC value of 16 micrograms/ml or less)
